From patent US20120264753A1, “NOVEL 1-(BIPHENYL-4-YL-METHYL)-1H-IMIDAZOLE DERIVATIVE AND PHARMACEUTICAL PRODUCT CONTAINING SAME” (KOWA COMPANY, LTD., priority 2009, published 2012)

What was measured:
human PPARγ2 = target: T1, human PPARγ2 (Homo sapiens, UniProt P37231); test: PPARγ activation activity, Gal4-PPARγ2 LBD luciferase transfection assay in COS7 cells; type: cell-based; conditions: Gal4-human PPARγ2 LBD chimera, luciferase reporter, 16 hours
T1 construct: the amino acids 182 to 505 of human PPARγ2; expressed in transfected cells; host or cells: COS7 cells (African green monkey kidney)
T1 sequence (P37231 182-505): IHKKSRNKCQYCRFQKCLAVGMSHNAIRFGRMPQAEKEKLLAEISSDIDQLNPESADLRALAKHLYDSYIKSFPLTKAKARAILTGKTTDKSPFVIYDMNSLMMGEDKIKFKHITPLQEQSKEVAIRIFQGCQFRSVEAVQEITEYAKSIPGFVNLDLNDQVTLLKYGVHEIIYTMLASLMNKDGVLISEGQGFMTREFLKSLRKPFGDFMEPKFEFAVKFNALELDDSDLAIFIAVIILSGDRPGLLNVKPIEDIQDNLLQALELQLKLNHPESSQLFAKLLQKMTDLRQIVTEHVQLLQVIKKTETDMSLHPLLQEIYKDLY
Description: PPARγ Activation Activity
The agonistic activity of the compounds of the invention on PPARγ was measured based on the transfection assay using COS7 cells (DS Pharma Biomedical Co., Ltd., Osaka, Japan), which are the cell line derived from the kidney of the African green monkey. COS7 cells were cultured under 5% CO2 concentration, and DMEM medium containing 10% fetal bovine serum, glutamic acid, and antibiotics was used as a medium.
As an expression vector, a chimera in which DNA binding domain of Gal4, which is a yeast transcription factor, and ligand binding domain of human PPARγ2 are fused, i.e., a fused product between the amino acids 1 to 147 of Gal4 transcription factor and the amino acids 182 to 505 of human PPARγ2, was used. Furthermore, as a reporter vector, a firefly luciferase containing five copies of Gal4 recognition sequence in the promoter region was used. Plasmid transfection to the cells was performed according to a method which uses jetPEI (trade name, manufactured by Funakoshi Co., Ltd., Tokyo, Japan). Furthermore, β-galactosidase expression vector was employed as an internal standard.
After the transfection of the cells, the medium was replaced with a DMEM medium (containing […]) added with the test compound, and the cells were further cultured for 16 hours. After that, the luciferase activity and β-galactosidase activity in the cell lysis solution were measured.
For the present test, dimethyl sulfoxide (DMSO) was used for dissolution and dilution of the test compounds, and during the cell treatment, the DMSO concentration in DMEM medium (containing 1% serum) was adjusted to 0.1%. The 50% effective concentration of the test compound (EC50, 50% effect concentration) was calculated by using SAS Preclinical Package Ver 5.0 (trade name, manufactured by SAS institute Japan Co., Tokyo, Japan), which is a statistical analysis program.

[1] = target: T2, angiotensin II type 1 receptor (Oryctolagus cuniculus, UniProt P34976); test: Angiotensin II antagonistic activity in isolated rabbit blood vessels; conditions: angiotensin II (10 nM)-induced contraction of rabbit thoracic aorta ring; read-out: Angiotensin II 50% inhibition concentration
T2 construct: By using a specimen of isolated rabbit blood vessels; from tissue; host or cells: rabbit (New Zealand White) thoracic aorta ring
T2 sequence (P34976 1-359): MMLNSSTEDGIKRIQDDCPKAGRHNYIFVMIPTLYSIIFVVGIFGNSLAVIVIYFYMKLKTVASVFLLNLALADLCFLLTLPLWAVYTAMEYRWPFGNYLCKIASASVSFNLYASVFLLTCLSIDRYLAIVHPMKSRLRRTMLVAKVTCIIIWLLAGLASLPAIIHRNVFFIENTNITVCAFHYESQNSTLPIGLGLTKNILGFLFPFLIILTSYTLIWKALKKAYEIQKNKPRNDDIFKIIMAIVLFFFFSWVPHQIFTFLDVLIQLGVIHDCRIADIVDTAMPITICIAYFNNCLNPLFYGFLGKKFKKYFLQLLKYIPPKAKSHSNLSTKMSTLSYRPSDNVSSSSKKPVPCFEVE
Text: Angiotensin II Antagonistic Activity in Isolated Rabbit Blood Vessels
By using a specimen of isolated rabbit blood vessels, antagonistic activity of the compounds of the invention against angiotensin II type 1 receptor was estimated from a dose-response curve of angiotensin II-induced blood vessel contraction. Specifically, the specimen of thoracic aorta ring of a rabbit (New Zealand White: male, 2.4 to 3.0 kg) was suspended in a magnus bath filled with Krebs-Henseleite buffer (composition: 118 mM NaCl, 4.7 mM KCl, 2.55 mM CaCl2, 1.18 mM MgSO4, 1.18 mM KH2PO4, 24.88 mM NaHCO3, and 11.1 mM D-glucose), and angiotensin II (10 nM)-induced contraction was obtained in the presence of the compounds of each Example (1 nmol/L to 10 μmol/L). During the measurement, the inside temperature of the magnus bath was maintained at 37° C. and the bath was continuously ventilated with a sufficient amount of mixed gas (95% O2 and 5% CO2). The angiotensin II-induced contraction was converted into a relative value (%) that is based on the angiotensin II (10 nM)-induced contraction in the absence of the compounds of each Example. From the concentration-response curve obtained therefrom, 50% inhibition concentration (IC50 value) was calculated by using SAS Preclinical Package Ver 5.0 (trade name, manufactured by SAS institute Japan Co., Tokyo, Japan), which is a statistical analysis program. As described in the Table 1, it was confirmed that the compounds of the invention have a potent angiotensin II antagonistic activity.

| EC50 (human PPARγ2) | IC50 [1] | Compound |
| --- | --- | --- |
| 1.52 µM | – | CCCCc1nc(-c2ccc(F)cc2)c(CO)n1Cc1ccc(-c2ccccc2-c2noc(=O)[nH]2)cc1 [Example 1, 3-[4′-[{2-butyl-4-(4-fluorophenyl)-5-(hydroxymethyl)-1H-imidazol-1-yl}methyl]biphenyl-2-yl]-1,2,4-oxadiazol-5(4H)-one] |
| – | 4.07 µM | CCCCc1nc(-c2ccc(F)cc2)c(C(=O)OC)n1Cc1ccc(-c2ccccc2-c2noc(=O)[nH]2)cc1 [Example 2, methyl 2-butyl-4-(4-fluorophenyl)-1-[{2′-(5-oxo-4,5-dihydro-1,2,4-oxadiazol-3-yl)biphenyl-4-yl}methyl]-1H-imidazole-5-carboxylic acid] |
| 1.48 µM | 1.04 µM | CCCCc1nc(-c2ncc(OCC)cn2)c(CO)n1Cc1ccc(-c2ccccc2-c2noc(=O)[nH]2)cc1 [Example 4, 3-[4′-[{2-butyl-4-(5-ethoxypyrimidin-2-yl)-5-(hydroxymethyl)-1H-imidazol-1-yl}methyl]-biphenyl-2-yl]-1,2,4-oxadiazol-5(4H)-one] |
| – | 0.77 µM | CCCCc1nc(-c2ncc(OCC)cn2)c(CO)n1Cc1ccc(-c2ccccc2-c2nnn[nH]2)cc1 [Example 5, [1-[{2′-(1H-tetrazol-5-yl)biphenyl-4-yl}methyl]-2-butyl-4-(5-ethoxypyrimidin-2-yl)-1H-imidazol-5-yl]methanol] |
| 0.56 µM | 6.94 µM | CCCCc1nc(-c2ncc(OCC)cn2)c(C(=O)OC)n1Cc1ccc(-c2ccccc2-c2noc(=O)[nH]2)cc1 [Example 6, methyl 2-butyl-4-(5-ethoxypyrimidin-2-yl)-1-[{2′-(5-oxo-4,5-dihydro-1,2,4-oxadiazol-3-yl)biphenyl-4-yl}methyl]-1H-imidazole-5-carboxylic acid] |
| 3.01 µM | 1.01 µM | CCCCc1nc(-c2ncc(OCC)cn2)c(C(=O)OC)n1Cc1ccc(-c2ccccc2-c2nnn[nH]2)cc1 [Example 8, methyl 1-[{2′-(1H-tetrazol-5-yl)biphenyl-4-yl}methyl]-2-butyl-4-(5-ethoxypyrimidin-2-yl)-1H-imidazole-5-carboxylic acid] |
| 3.43 µM | 0.8 µM | CCCCc1nc(-c2ccc(F)cc2)c(C(N)=O)n1Cc1ccc(-c2ccccc2-c2noc(=O)[nH]2)cc1 [Example 10, 2-butyl-4-(4-fluorophenyl)-1-({2′-(5-oxo-4,5-dihydro-1,2,4-oxadiazol-3-yl)biphenyl-4-yl}methyl)-1H-imidazole-5-carboxamide] |
| 2.28 µM | 5.69 µM | CCCCc1nc(-c2ccc(F)cc2)c(C(=O)NCC)n1Cc1ccc(-c2ccccc2-c2noc(=O)[nH]2)cc1 [Example 11, 2-butyl-N-ethyl-4-(4-fluorophenyl)-1-[{2′-(5-oxo-4,5-dihydro-1,2,4-oxadiazol-3-yl)biphenyl-4-yl}methyl]-1H-imidazole-5-carboxamide] |
| 2.37 µM | – | CCCCc1nc(-c2ccc(F)cc2)c(C(=O)N(CC)CC)n1Cc1ccc(-c2ccccc2-c2noc(=O)[nH]2)cc1 [Example 12] |
| – | 0.46 µM | CCCCc1nc(-c2ccc(F)cc2)c(C(N)=O)n1Cc1ccc(-c2ccccc2-c2nnn[nH]2)cc1 [Example 15, 1-[{2′-(1H-tetrazol-5-yl)biphenyl-4-yl}methyl]-2-butyl-4-(4-fluorophenyl)-1H-imidazole-5-carboxamide] |
| – | 0.99 µM | CCCCc1nc(-c2ccc(F)cc2)c(C(=O)NCC)n1Cc1ccc(-c2ccccc2-c2nnn[nH]2)cc1 [Example 16, 1-[{2′-(1H-tetrazol-5-yl)biphenyl-4-yl}methyl]-2-butyl-N-ethyl-4-(4-fluorophenyl)-1H-imidazole-5-carboxamide] |
| 3.3 µM | – | CCCCc1nc(-c2ccc(F)cc2)c(C(=O)N(CC)CC)n1Cc1ccc(-c2ccccc2-c2nnn[nH]2)cc1 [Example 17, 1-[{2′-(1H-tetrazol-5-yl)biphenyl-4-yl}methyl]-2-butyl-N,N-diethyl-4-(4-fluorophenyl)-1H-imidazole-5-carboxamide] |
| 4.32 µM | 1.6 µM | CCCCc1nc(-c2ccc(F)cc2)c(C(=O)N2CCOCC2)n1Cc1ccc(-c2ccccc2-c2nnn[nH]2)cc1 [Example 18, [1-[{2′-(1H-tetrazol-5-yl)biphenyl-4-yl}methyl]-2-butyl-4-(4-fluorophenyl)-1H-imidazol-5-yl](morpholino)methanone] |
| – | 6.98 µM | CCCCc1nc(-c2ccc(F)cc2)c(C(=O)N2CCCC2)n1Cc1ccc(-c2ccccc2-c2nnn[nH]2)cc1 [Example 19, [1-[{2′-(1H-tetrazol-5-yl)biphenyl-4-yl}methyl]-2-butyl-4-(4-fluorophenyl)-1H-imidazol-5-yl](pyrrolidin-1-yl)methanone] |

| Compound | EC50 (human PPARγ2) | IC50 [1] |
| --- | --- | --- |
| CCCc1nc2c(C)cc(-c3nc4ccccc4n3C)cc2n1Cc1ccc(-c2ccccc2C(=O)O)cc1 [telmisartan, reference compound] | 1 to 5 µM | – |
